Source: ChEMBL document CHEMBL1201862, “PubChem BioAssay data set” (2004)
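Values below derive from 48-hour exposures of cells grown in 96-well plates, with endpoints linearly interpolated between the two concentrations bracketing the appropriate inhibition level. The concentration for 50% growth inhibition is given as GI50.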 Active and inactive are the calls of the source. Rule as the data show it: active = GI50 up to about 1.1 µM and inactive = higher.

What was measured:
Assay in all cases: growth of human tumour cells (NCI), 48 h
M14 = test system: M14
HCT-116 = test system: HCT-116
UACC-62 = test system: UACC-62
SN12C = test system: SN12C
SK-MEL-5 = test system: SK-MEL-5
RPMI-8226 = test system: RPMI-8226
SR = test system: SR
HL-60 = test system: HL-60
OVCAR-5 = test system: OVCAR-5
Malme-3M = test system: Malme-3M
SK-OV-3 = test system: SK-OV-3
SW-620 = test system: SW-620
UACC-257 = test system: UACC-257
SK-MEL-28 = test system: SK-MEL-28
CAKI-1 = test system: CAKI-1
SNB-75 = test system: SNB-75
A498 = test system: A498
HT-29 = test system: HT-29

Measured: GI50

CC(=O)Oc1ccc(Nn2c3ccccc3c3ccccc32)c(C)c1
inactive: M14 29 µM | HCT-116 35.7 µM | UACC-62 51.5 µM | SN12C 41.5 µM | SK-MEL-5 39.2 µM | RPMI-8226 15.7 µM | SR 21.7 µM | HL-60 22.3 µM | OVCAR-5 > 100 µM | Malme-3M 28.6 µM | SK-OV-3 40.9 µM | SW-620 25.2 µM | UACC-257 33.4 µM | SK-MEL-28 67.6 µM

NC(CCCCNCc1ccccc1)C(=O)O (configuration not stated)
inactive: M14 > 100 µM | HCT-116 > 100 µM | UACC-62 > 100 µM | SN12C > 100 µM | SK-MEL-5 > 100 µM | RPMI-8226 > 100 µM | CAKI-1 > 100 µM | SNB-75 > 100 µM | HL-60 > 100 µM | A498 > 100 µM | OVCAR-5 > 100 µM | Malme-3M > 100 µM | SK-OV-3 > 100 µM | HT-29 > 100 µM | SW-620 > 100 µM | UACC-257 > 100 µM | SK-MEL-28 > 100 µM

CC(C)CC(N/C=C1/N=C(c2ccccc2)OC1=O)C(=O)O (configuration not stated)
inactive: M14 > 100 µM | HCT-116 > 100 µM | UACC-62 > 100 µM | SN12C > 100 µM | SK-MEL-5 > 100 µM | RPMI-8226 > 100 µM | SR > 100 µM | CAKI-1 > 100 µM | SNB-75 37.3 µM | HL-60 > 100 µM | A498 > 100 µM | OVCAR-5 > 100 µM | Malme-3M > 100 µM | SK-OV-3 > 100 µM | HT-29 > 100 µM | SW-620 > 100 µM | UACC-257 > 100 µM | SK-MEL-28 > 100 µM

COC(=O)c1s/c(=N\C(=S)N(C)C)n(-c2ccccc2)c1C(=O)OC
inactive: M14 > 100 µM | HCT-116 > 100 µM | UACC-62 > 100 µM | SN12C > 100 µM | SK-MEL-5 > 100 µM | RPMI-8226 73.5 µM | CAKI-1 > 100 µM | SNB-75 52.2 µM | HL-60 32.6 µM | A498 > 100 µM | OVCAR-5 > 100 µM | Malme-3M > 100 µM | SK-OV-3 > 100 µM | HT-29 57 µM | SW-620 > 100 µM | UACC-257 > 100 µM | SK-MEL-28 > 100 µM

C/C(=N/NC(=O)c1ccccc1S(N)(=O)=O)C(CN1CCCCC1)C(C1=C(O)C2C=CC=CC2OC1=O)c1ccccc1 (configuration not stated)
inactive: M14 78.3 µM | HCT-116 > 100 µM | UACC-62 82.6 µM | SN12C 78.7 µM | SK-MEL-5 56.9 µM | RPMI-8226 25.5 µM | SR 23.7 µM | CAKI-1 > 100 µM | SNB-75 > 100 µM | HL-60 23.4 µM | A498 > 100 µM | OVCAR-5 > 100 µM | Malme-3M 62.7 µM | SK-OV-3 > 100 µM | HT-29 83.9 µM | SW-620 31.8 µM | UACC-257 95.7 µM

CC(=O)C1C(=O)C(=O)N(c2ccc(Cl)cc2C)C1=O (configuration not stated)
inactive: M14 > 100 µM | HCT-116 > 100 µM | UACC-62 > 100 µM | SN12C > 100 µM | SK-MEL-5 > 100 µM | SR > 100 µM | HL-60 > 100 µM | A498 > 100 µM | OVCAR-5 > 100 µM | Malme-3M > 100 µM | HT-29 > 100 µM | SW-620 > 100 µM | UACC-257 > 100 µM | SK-MEL-28 > 100 µM

O=C1NC2CCCCCC2C12CCCCC2 (configuration not stated)
inactive: M14 > 100 µM | HCT-116 > 100 µM | UACC-62 > 100 µM | SN12C > 100 µM | SR > 100 µM | SNB-75 > 100 µM | HL-60 > 100 µM | A498 > 100 µM | OVCAR-5 > 100 µM | Malme-3M > 100 µM | SK-OV-3 > 100 µM | HT-29 > 100 µM | SW-620 > 100 µM | UACC-257 > 100 µM | SK-MEL-28 > 100 µM

COc1ccc2c(c1)[n+]([O-])c(-c1cccc(Cl)c1)c(N)[n+]2[O-]
inactive: HCT-116 38.5 µM | SN12C 48.4 µM | SK-MEL-5 19.2 µM | SR 43.6 µM | CAKI-1 62.4 µM | HL-60 29 µM | A498 > 100 µM | OVCAR-5 33.1 µM | Malme-3M 37.2 µM | SK-OV-3 95.9 µM | HT-29 41.5 µM | SW-620 39.7 µM | UACC-257 21.1 µM | SK-MEL-28 23.6 µM

COc1cc(C2C(C(=O)Nc3ccccc3C)=C(C)NC(C)=C2C(=O)Nc2ccccc2C)ccc1O
inactive: M14 > 100 µM | HCT-116 > 100 µM | UACC-62 > 100 µM | SN12C > 100 µM | SK-MEL-5 > 100 µM | RPMI-8226 84.7 µM | CAKI-1 > 100 µM | SNB-75 56.6 µM | HL-60 60.4 µM | A498 > 100 µM | OVCAR-5 > 100 µM | Malme-3M > 100 µM | SK-OV-3 > 100 µM | HT-29 > 100 µM | SW-620 > 100 µM | UACC-257 > 100 µM | SK-MEL-28 > 100 µM

COC(=O)C#CCC1CCCC1C1SCCS1 (configuration not stated)
inactive: M14 > 100 µM | HCT-116 > 100 µM | UACC-62 35.8 µM | SN12C 37.5 µM | SK-MEL-5 > 100 µM | SR 15.8 µM | CAKI-1 > 100 µM | SNB-75 > 100 µM | HL-60 38.1 µM | A498 > 100 µM | OVCAR-5 > 100 µM | Malme-3M > 100 µM | SK-OV-3 > 100 µM | HT-29 > 100 µM | SW-620 > 100 µM | UACC-257 51.3 µM | SK-MEL-28 > 100 µM

COc1ccc(Br)c(CN2CCc3ccccc32)c1OS(=O)(=O)c1ccc(C)cc1
inactive: M14 13.9 µM | SN12C 76 µM | RPMI-8226 26.3 µM | SR 43.7 µM | SNB-75 19.2 µM | HL-60 5.15 µM | OVCAR-5 > 100 µM | Malme-3M 45.2 µM | SW-620 16.3 µM | UACC-257 48.2 µM | SK-MEL-28 46 µM

COC(C(O)c1ccc2c(c1)OCO2)P(=O)(c1ccccc1)c1ccccc1 (configuration not stated)
inactive: M14 > 100 µM | HCT-116 > 100 µM | UACC-62 32.4 µM | SN12C 62.8 µM | SK-MEL-5 > 100 µM | SR > 100 µM | CAKI-1 33.6 µM | SNB-75 35.9 µM | HL-60 > 100 µM | A498 75.2 µM | OVCAR-5 > 100 µM | Malme-3M 16 µM | SK-OV-3 > 10 µM | HT-29 > 100 µM | SW-620 > 100 µM | UACC-257 > 100 µM | SK-MEL-28 > 100 µM

c1ccc(N/N=C2\NN=C(c3ccccc3)CS2)cc1
inactive: M14 6.73 µM | HCT-116 3.8 µM | UACC-62 5.81 µM | SN12C > 10 µM | SR 4.3 µM | CAKI-1 2.55 µM | HL-60 3.58 µM | A498 10.8 µM | OVCAR-5 14.7 µM | SK-OV-3 14.9 µM | HT-29 6.89 µM | SW-620 12.1 µM | UACC-257 16 µM | SK-MEL-28 16.3 µM
